These results are taken from article PMC7979765, “trans-Translation inhibitors bind to a novel site on the ribosome and clear Neisseria gonorrhoeae in vivo” (Nature Communications, 2021).

For one data set, the system named is Neisseria gonorrhoeae. The experiment in a line: MIC, microbroth dilution, G77L medium. In kind it is cell-based.
The subject of data set [1] is Salmonella typhimurium strains TA98 and TA100. In kind it is cell-based. How it is done:
The Ames assay was performed at SRI Biosciences, following the standard protocols established there[55]–[57]. In brief, samples were evaluated for their ability to induce genetic damage using the plate incorporation method with Salmonella typhimurium strains TA98 and TA100 with and without a metabolic activation mixture containing 10% Aroclar-1254-induced rat-liver microsomes (S9). MBX-4132 was tested from a 5 mg/mL DMSO stock solution (the solubility limit), which provided plate concentrations up to 500 µg/plate, with serial dilutions accessing doses as low as 5 µg/plate. MBX-4132 precipitated at the two highest dose levels (500 and 100 µg/plate), but at 50 µg/plate, no precipitation was observed. […] Test articles were considered mutagenic when the mean number of revertant colonies increased in a dose-dependent manner. Some cytotoxicity was observed, but sufficient colonies were formed to allow analysis. […] Data for 2-nitrofluorene and sodium azide (positive controls) and DMSO (negative control) were included for reference.

In data set [2] the test system is N. gonorrhoeae strain H041. The experiment in a line: In vivo efficacy in the gonorrhea mouse model. The following applies: for mouse cfu: individual mice, 2.00E+01 = no CFU/mL recovered, limit of detection.
Data set [3] is described as follows: Liver microsome stability, murine. In kind it is in vitro ADME, mouse. Conditions: murine liver microsomes. As to the method: To examine potential for first-pass metabolism of analogs in the liver, the stability of analogs in the presence of liver microsome preparations (Eurofins Discovery for human, dog and rat; Xenotech for mouse) was measured using the method of Kuhnz, et al.[50]. for murine studies and Oback for the dog, human and rat studies. The amount of parent compound remaining after incubation with microsomes in the presence of NADPH over a 30 min time range was measured using a reverse-phase liquid chromatography/mass spectroscopy method that was customized for each compound. Half-lives were calculated using linear regression analysis of several time points.

A short description of data set [4]: Aqueous solubility (nephelometric). It is filed as physicochemical.
Data set [5] deals with N. gonorrhoeae ATCC 49226. The experiment in a line: Time-kill assay.

The structures appear in SMILES notation. Converted amounts (≈) assume the structure as drawn. “And” between values parts separate entries of the source, which are not always exact repeats. Identical values can stand only once. Like-named read-outs stand apart in the source and are kept apart here. Bounds are passed on as bounds.

Consider `O=C(Nc1nnc(-c2ccc(F)cc2)o1)c1ccccc1` [MBXC1-4227], for which the MIC in the data set with Neisseria gonorrhoeae (Neisseria gonorrhoeae ATCC 49226, source data, individual replicates) was 0.8852 µg/mL and 0.4426 µg/mL.

On to `Nc1ccc2cc3ccccc3cc2c1` [2-Aminoanthracene, reference compound], for which the “Average Mean Revertants/plate” value in data set [1] (TA98, 2 µg/plate, + S9) stood at 1206.7 Revertants/plate; in data set [1] (TA100, 2 µg/plate, + S9), 1438.7 Revertants/plate. The “Mean Revertants/plate” value in data set [1] (TA98, 2 µg/plate, + S9, replicates) was 1086 Revertants/plate and 1134 Revertants/plate and 1400 Revertants/plate; in data set [1] (TA98, + S9, 2 µg/plate), 1206.7; in data set [1] (TA100, 2 µg/plate, + S9, replicates) it was 1428 Revertants/plate and 1389 Revertants/plate and 1499 Revertants/plate; in data set [1] (TA100, + S9, 2 µg/plate), 1438.7.

As for `O=[N+]([O-])c1ccc2c(c1)Cc1ccccc1-2` [2-Nitrofluorene, reference compound], the “Average Mean Revertants/plate” value in data set [1] (TA98, 5 µg/plate, no S9) was 1331.3 Revertants/plate. Besides, the “Mean Revertants/plate” value is 1220 Revertants/plate and 1245 Revertants/plate and 1529 Revertants/plate in data set [1] (TA98, 5 µg/plate, no S9, replicates); 1331.3 in data set [1] (TA98, without S9, 5 µg/plate).

On to `CNC(C)C1CCC(N)C(OC2C(N)CC(N)C(OC3OCC(C)(O)C(NC)C3O)C2O)O1` (stereo not shown) [gentamicin, reference compound], for which the mouse cfu was 2.00E+01 CFU/mL (19×) and 3.11E+03 CFU/mL in data set [2] (Day 5, GEN, listed as GEN); 2.00E+01 CFU/mL (19×) and 6.14E+04 CFU/mL in data set [2] (Day 6, GEN, listed as GEN); 2.00E+01 CFU/mL (19×) and 3.22E+05 CFU/mL in data set [2] (Day 7, GEN, listed as GEN); 2.00E+01 CFU/mL (19×) and 5.02E+06 CFU/mL in data set [2] (Day 8, GEN, listed as GEN); 1.75E+06 CFU/mL and 2.50E+03 CFU/mL and 5.59E+05 CFU/mL and 1.30E+04 CFU/mL and 2.52E+05 CFU/mL and 1.60E+05 CFU/mL and 6.90E+06 CFU/mL and 1.04E+06 CFU/mL and 2.76E+04 CFU/mL and 2.76E+06 CFU/mL and 1.05E+03 CFU/mL and 2.80E+06 CFU/mL and 2.25E+06 CFU/mL and 3.27E+05 CFU/mL and 1.99E+05 CFU/mL and 1.82E+05 CFU/mL and 1.55E+06 CFU/mL and 1.50E+06 CFU/mL and 9.59E+05 CFU/mL and 4.61E+03 CFU/mL in data set [2] (Day -1, GEN, listed as GEN). The “mice cleared per day: cleared flag” value in data set [2] (GEN, individual mice 21-40, 1 = cleared on the day, 0 = not cleared, listed as GEN) is 1 and 0. Moreover, the “Day (mice cleared per day: day on which the mouse was cleared)” value in data set [2] (GEN, individual mice 21-40, Day 8 with flag 0 = not cleared, listed as GEN) was 1 and 4 and 8 and 3 and 5 and 2. In addition, the “treated mice with infection cleared” value in data set [2] (daily intraperitoneal injection 48 mg/kg for 5 days, N. gonorrhoeae H041) came out at 95%.

In the case of `O=C(Nc1nnc(-c2ccc(F)cc2)o1)c1ccccc1` [MBX-C4227], in data set [3] (average of replicates), the “Average MLMS t½” value is reported as below 5 min. The “MLMS t½” value in data set [3] (individual replicates) is recorded as below 5 min. For the same compound, in data set [4], the “Average solubility” value was found to be 50 µM. Further, the Solubility in data set [4] (single replicates) was determined as 50 µM (≈ 14.2 µg/mL).

For the compound `O=C(Nc1nnc(-c2ccc(F)cc2)o1)N1CCc2ccccc2C1` [MBX4132], the MIC was found to be 0.27 µg/mL (≈ 0.798 µM) in the data set with Neisseria gonorrhoeae (strain MMX 6744, single data point, Micromyx); 0.14 µg/mL (≈ 0.414 µM) in the data set on Neisseria gonorrhoeae (strain MMX 6746, single data point, Micromyx); 0.27 µg/mL (≈ 0.798 µM) in the data set on Neisseria gonorrhoeae (strain MMX 6752, single data point, Micromyx); 0.14 µg/mL (≈ 0.414 µM) against Neisseria gonorrhoeae (strain MMX 6753, single data point, Micromyx); 0.07 µg/mL (≈ 0.207 µM) in the data set with Neisseria gonorrhoeae (strain MMX 6757, single data point, Micromyx); 0.27 µg/mL (≈ 0.798 µM) in the data set on Neisseria gonorrhoeae (strain MMX 6758, single data point, Micromyx). The MIC against Neisseria gonorrhoeae (strain MMX 6762, single data point, Micromyx) is 0.27 µg/mL (≈ 0.798 µM); against Neisseria gonorrhoeae (strain MMX 6767, single data point, Micromyx), 0.14 µg/mL (≈ 0.414 µM); with Neisseria gonorrhoeae (strain MMX 6771, single data point, Micromyx), 0.14 µg/mL (≈ 0.414 µM); against Neisseria gonorrhoeae (strain MMX 6793, single data point, Micromyx), 0.14 µg/mL (≈ 0.414 µM); against Neisseria gonorrhoeae (strain MMX 6797, single data point, Micromyx), 0.14 µg/mL (≈ 0.414 µM); with Neisseria gonorrhoeae (strain MMX 6803, single data point, Micromyx), 0.27 µg/mL (≈ 0.798 µM). Besides, the MIC in the data set with Neisseria gonorrhoeae (strain MMX 6812, single data point, Micromyx) is 0.27 µg/mL (≈ 0.798 µM); in the data set on Neisseria gonorrhoeae (strain MMX 6818, single data point, Micromyx) it was 0.27 µg/mL (≈ 0.798 µM); against Neisseria gonorrhoeae (strain MMX 6819, single data point, Micromyx) it was 0.14 µg/mL (≈ 0.414 µM); with Neisseria gonorrhoeae (strain MMX 6879, single data point, Micromyx), 0.14 µg/mL (≈ 0.414 µM); with Neisseria gonorrhoeae (strain MMX 6921, single data point, Micromyx) it was 0.53 µg/mL (≈ 1.57 µM); against Neisseria gonorrhoeae (strain MMX 6922, single data point, Micromyx), 0.53 µg/mL (≈ 1.57 µM). Also, the MIC against Neisseria gonorrhoeae (strain MMX 6983, single data point, Micromyx) came to 0.53 µg/mL (≈ 1.57 µM); against Neisseria gonorrhoeae (strain MMX 6989, single data point, Micromyx) it was 0.14 µg/mL (≈ 0.414 µM); in the data set with Neisseria gonorrhoeae (strain MMX 6990, single data point, Micromyx) it was 0.14 µg/mL (≈ 0.414 µM); in the data set on Neisseria gonorrhoeae (strain MMX 6992, single data point, Micromyx), 0.14 µg/mL (≈ 0.414 µM); with Neisseria gonorrhoeae (strain MMX 6996, single data point, Micromyx), 0.27 µg/mL (≈ 0.798 µM); in the data set on Neisseria gonorrhoeae (strain MMX 6998, single data point, Micromyx) it was 0.53 µg/mL (≈ 1.57 µM). In addition, the MIC with Neisseria gonorrhoeae (strain MMX 7002, single data point, Micromyx) stood at 0.27 µg/mL (≈ 0.798 µM); against Neisseria gonorrhoeae (strain MMX 7005, single data point, Micromyx), 0.03 µg/mL (≈ 0.0887 µM); in the data set with Neisseria gonorrhoeae (strain MMX ATCC 49226, single data point, Micromyx), 0.27 µg/mL (≈ 0.798 µM).

As for `CO/N=C(\C(=O)N[C@@H]1C(=O)N2C(C(=O)O)=C(CSc3nc(=O)c(=O)[nH]n3C)CS[C@H]12)c1csc(N)n1` [CRO, reference compound], the “AVE CFU/ml” value in data set [5] (1X MIC, 0 h) was 9800000 CFU/ml; in data set [5] (1X MIC, 1 h), 8.20E+06 CFU/ml and 8200000 CFU/ml; in data set [5] (1X MIC, 2 h) it was 3.47E+06 CFU/ml and 3466667 CFU/ml; in data set [5] (1X MIC, 4 h) it was 60666.7 CFU/ml and 6.07E+04 CFU/ml; in data set [5] (1X MIC, 6 h), 27333.3 CFU/ml and 2.73E+04 CFU/ml; in data set [5] (1X MIC, 8 h), 5733.33 CFU/ml and 5.73E+03 CFU/ml. For the same compound, the “AVE CFU/ml” value in data set [5] (1X MIC, 24 h) is 2466667 CFU/ml and 2.47E+06 CFU/ml; in data set [5] (4X MIC, 0 h), 9800000 CFU/ml; in data set [5] (4X MIC, 1 h) it was 7.67E+06 CFU/ml and 7666667 CFU/ml; in data set [5] (4X MIC, 2 h) it was 3.87E+06 CFU/ml and 3866667 CFU/ml; in data set [5] (4X MIC, 4 h) it was 40000 CFU/ml and 4.00E+04 CFU/ml; in data set [5] (4X MIC, 6 h), 5266.67 CFU/ml and 5.27E+03 CFU/ml. In addition, the “AVE CFU/ml” value in data set [5] (4X MIC, 8 h) is 1066.67 CFU/ml and 1.07E+03 CFU/ml; in data set [5] (4X MIC, 24 h), 0 CFU/ml and 0.00E+00 CFU/ml. Moreover, the “CFU/mL, replicates 1-3” value in data set [5] (1X MIC, 1 h) is 8200000 CFU/mL and 8000000 CFU/mL and 8400000 CFU/mL; in data set [5] (1X MIC, 2 h), 3800000 CFU/mL and 3200000 CFU/mL and 3400000 CFU/mL; in data set [5] (1X MIC, 4 h) it was 60000 CFU/mL and 58000 CFU/mL and 64000 CFU/mL; in data set [5] (1X MIC, 6 h), 24000 CFU/mL and 32000 CFU/mL and 26000 CFU/mL; in data set [5] (1X MIC, 8 h), 5800 CFU/mL and 5400 CFU/mL and 6000 CFU/mL; in data set [5] (1X MIC, 24 h) it was 2400000 CFU/mL and 2200000 CFU/mL and 2800000 CFU/mL. Further, the “CFU/mL, replicates 1-3” value was 7800000 CFU/mL and 7200000 CFU/mL and 8000000 CFU/mL in data set [5] (4X MIC, 1 h); 3400000 CFU/mL and 4000000 CFU/mL and 4200000 CFU/mL in data set [5] (4X MIC, 2 h); 36000 CFU/mL and 42000 CFU/mL (2×) in data set [5] (4X MIC, 4 h); 4400 CFU/mL and 5200 CFU/mL and 6200 CFU/mL in data set [5] (4X MIC, 6 h); 1400 CFU/mL and 800 CFU/mL and 1000 CFU/mL in data set [5] (4X MIC, 8 h); 0 CFU/mL in data set [5] (4X MIC, 24 h). The compound also registered an MIC in data set [5] (Neisseria gonorrhoeae, ATCC49226) of 0.008 µg/mL (≈ 0.0144 µM).

As for `[N-]=[N+]=[N-].[Na+]` [Sodium Azide, reference compound], the “Average Mean Revertants/plate” value in data set [1] (TA100, 5 µg/plate, no S9) was 2029.0 Revertants/plate. The “Mean Revertants/plate” value is 1978 Revertants/plate and 2032 Revertants/plate and 2077 Revertants/plate in data set [1] (TA100, 5 µg/plate, no S9, replicates); 2029.0 in data set [1] (TA100, without S9, 5 µg/plate).
